Source: publication PMC8224453, “A New PqsR Inverse Agonist Potentiates Tobramycin Efficacy to Eradicate Pseudomonas aeruginosa Biofilms” (Advanced Science, 2021)

Columns and labels:
PqsR = target: T1, PqsR (Pseudomonas aeruginosa, UniProt Q9I4X0); test: PqsR β-galactosidase reporter-gene assay in E. coli DH5α; format: cell-based
T1 construct: which expresses PqsR and the β-galactosidase LacZ under the control of the pqsA promoter; expressed in transfected cells; host or cells: E. coli DH5α carrying plasmid pEAL08-2
T1 sequence (Q9I4X0 whole entry): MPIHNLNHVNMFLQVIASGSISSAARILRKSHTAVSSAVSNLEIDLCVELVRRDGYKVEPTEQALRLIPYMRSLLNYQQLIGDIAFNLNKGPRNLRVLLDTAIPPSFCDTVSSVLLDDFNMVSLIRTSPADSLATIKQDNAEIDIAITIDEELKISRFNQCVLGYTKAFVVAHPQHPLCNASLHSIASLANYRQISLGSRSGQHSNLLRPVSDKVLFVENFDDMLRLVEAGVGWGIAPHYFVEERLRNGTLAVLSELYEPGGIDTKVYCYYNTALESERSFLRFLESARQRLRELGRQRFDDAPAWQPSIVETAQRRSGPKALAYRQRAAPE
Description: 3. Primary Activity Assays
The inverse agonistic/antagonistic activity of potential PqsR ligands was evaluated in a β-galactosidase reporter gene assay in E. coli as previously described.[3] In short, test compounds were co-incubated with E. coli DH5α cells containing the plasmid pEAL08-2,[4] which expresses PqsR and the β-galactosidase LacZ under the control of the pqsA promoter.
The inverse agonistic/antagonistic activity of compounds was measured in the presence of 50 nM PQS. After incubation, galactosidase activity was quantified photometrically and expressed as ratio of controls. The given IC50 values represent the mean of at least two independent experiments using at least eight different concentrations of test compound with n = 4. Non-linear regression analysis was performed using OriginPro 2020. […]

[1] = Metabolic stability, human liver S9; format: in vitro ADME
Description: (§1) For the evaluation of combined phase I and phase II metabolic stability, the compound (1 μM) was incubated with 1 mg/mL pooled liver S9 fraction from the respective species (Xenotech), […]
(§2) 2 mM NADPH, 1 mM UDPGA, 10 mM MgCl2, 5 mM GSH and 0.1 mM PAPS at 37 °C for […]
(§3) 0, 5, 15, 30 or 60 min. The metabolic stability of Testosterone (1 μM) and verapamil (1 μM) […]
(§4) were determined in parallel to confirm the enzymatic activity of the S9 fraction. The […]
(§5) incubation was stopped by precipitation of S9 enzymes with 2 volumes of cold acetonitrile […]
(§6) containing internal standard (750 nM Diphenhydramine). Samples were stored on ice for 10 […]
(§7) min and precipitated protein was removed by centrifugation (10 min, 4 °C, 17,000 g).
(§8) Concentration of the remaining test compound at the different time points was analyzed by […]
(§9) LC-MS/MS (TSQ Quantum Access MAX, Thermo Fisher, Dreieich, Germany) and used to […]
(§10) determine half-life (t1/2). Stability of compound 4 in further S9 fractions are summarized in […]
(§11) Table S4. Metabolic stability studies in various S9 fractions. […]

P. aeruginosa NH57388A = test: Murine mucoid lung infection model, target engagement; format: in vivo, Pseudomonas aeruginosa
Description: We, therefore, decided to make use of a murine sub‐chronic infection model with a mucoid infection phenotype specifically enabling to assess the on‐target activity of QSIs. […] Animals were immediately treated with QSI 4 co‐administered using methyl cellulose (dose = 5 mg kg^−1) or vehicle (control), followed by further treatments at 24 and 48 h post‐infection. The lungs were harvested at 72 h time point, homogenized and extracted using ethyl acetate. As a readout for target engagement, we quantified the signal molecule levels of HHQ, PQS, and HQNO as proximal biomarkers for the activity of the bacterial target. […] In addition, we measured bacterial burden in form of CFU count as a treatment endpoint (Section S6.3, Supporting Information). […] Moreover, CFU was reduced by four‐fold upon treatment with QSI 4 (see Table S11 in the Supporting Information). […] However, considering the impact of the host immune system on bacterial clearance and the action of some PqsR‐controlled virulence factors toward immune‐system evasion (biofilm formation, pyocyanin production, elastase LasB expression), an indirect effect on the bacterial load in the lungs is plausible. However, it has to be stated that this effect is only minor compared to typical 2‐ to 4‐log unit reductions achieved by early antibiotic treatment.^[ ^31 ^]
6.3. Design of in vivo Target Engagement Study
General. Mouse experiments were approved by the Landesamt für Soziales, Gesundheit und Verbraucherschutz of the State of Saarland in accordance with the national guidelines for animal treatment on August, 17th, 2017 (22/2017). The IVC unit was located within a biosafety level 2 laboratory and mice were allowed to acclimatize to their environment for at least seven days prior to the experiment. Throughout the experiment, the mice had access to water and food ad libitum.
Background studies were performed in order to generate typical mean and standard deviation values for biomarkers of the control group. Sample size was calculated using BiAS.
(Software Version 11.08) from these values with alpha = 0.05 and P = 0.8 for biomarker reduction of 80% resulting in a sample size of ten mice or higher for a two-sample t-test.
Primary study. Ten-week old female C57BL/6N mice were housed in an individually ventilated-cage unit with ten mice per cage and twenty mice in total. One group (from one cage) was treated with compound 4, while the other group received a sham treatment with vehicle. Mice were not randomized, and no blinding was applied.
For the infection, each mouse was anesthetized intraperitoneally with 2.025 mg of ketaminhydrochloride (Ursotamin, Serumwerk Bernburg, Germany) and 0.12 mg of xylazinhydrochloride (Xylazin, WDF, Serumwerk Bernburg). Lidocainhydrochloride (Xylocain; Aspen Pharma, Ireland) was used for local anesthesia of the epiglottis before endotracheal intubation with a flexible cannula and intra-tracheal application of the inoculum […]
Application of inoculum (start of infection, 0 h) using 20 µL viable P. aeruginosa NH57388A culture supplemented with sodium alginate (22 mg/mL, Sigma). These were mixed with 20 µL of either compound 4 (5 mg/kg BW suspended in 0.1% methylcellulose) or vehicle (0.1% methylcellulose) to conduct the first treatment simultaneously to infection via intra-tracheal application assisted by endotracheal intubation using a flexible cannula. Bacterial load was determined to be 5∙10^7 CFU per mouse by plating serial dilutions on LB-agar plates.
Subsequent treatments were performed at 24 and 48 h post infection with 20 µL of compound 4 (5 mg/kg BW suspended in 0.5% methylcellulose, 0.2 vol-% Tween-80) or vehicle (0.5% methylcellulose, 0.2 vol-% Tween 80) were administered intra-tracheally following the same procedure as the infection. 72 h post infection mice were euthanized, lungs were removed aseptically and homogenized in 500 µL sterile phosphate buffered saline over the course of […]
72 h. Again, bacterial load was determined by plating serial dilutions on LB-agar plates. The […]

[2] = Metabolic stability, rat liver S9; format: in vitro ADME; conditions: pooled liver S9 fraction, Table S4, n=1, read-out: t1/2 rat liver S9
Description: as §1, §2, §3, §4, §5, §6, §7, §8, §9, §10, §11

[3] = pooled human liver S9 fraction, Table 2, read-out: Metabolic stability t 1/2 S9 human
[4] = treated group, n = 7, 72 h, below LLOQ

Structure (SMILES): FC(F)(F)c1cc(NCc2cn(-c3ccc(Oc4ccccc4)cc3)nn2)ccn1 [Compound 4]
- IC50 (PqsR): 11 nM
- half-life at 1 μM [1, 3]: 169 min
- half-life at 1 μM ([1]; pooled liver S9 fraction, Table S4, read-out: t1/2 human liver S9): 67.6 ± 9 min
- reduction of CFU / bacterial load upon treatment (P. aeruginosa NH57388A; mice, 5 mg kg^−1, 72 h): four‐fold
- auto‐inducer levels (HHQ, PQS, HQNO) in infected lungs (P. aeruginosa NH57388A; mice, 5 mg kg^−1, 72 h, p < 0.05): reduced significantly
- CFU/mouse Mean (P. aeruginosa NH57388A; treated group, n = 7, 72 h): 173600 CFU/mouse
- CFU/mouse Median (P. aeruginosa NH57388A; treated group, n = 7, 72 h): 147500 CFU/mouse
- HHQ Mean (P. aeruginosa NH57388A; treated group, n = 7, 72 h): 1.7 pmol
- HHQ Median (P. aeruginosa NH57388A; treated group, n = 7, 72 h): 0.9 pmol
- HQNO Mean (P. aeruginosa NH57388A; treated group, n = 7, 72 h): 5.2 pmol
- HQNO Median (P. aeruginosa NH57388A; treated group, n = 7, 72 h): 2.3 pmol
- PQS Mean (P. aeruginosa NH57388A; [4]): 0.3 pmol
- PQS Median (P. aeruginosa NH57388A; [4]): 0.2 pmol
- Reduction through treatment, CFU/mouse (P. aeruginosa NH57388A; treated vs untreated means): 77.3%
- Reduction through treatment, HHQ (P. aeruginosa NH57388A; treated vs untreated means): 99.3%
- Reduction through treatment, HQNO (P. aeruginosa NH57388A; treated vs untreated means): 98.3%
- Reduction through treatment, PQS (P. aeruginosa NH57388A; treated vs untreated means): 99.1%
- half-life at 1 μM [2]: 24.2 min

Structure (SMILES): COc1ccc(-n2cc(CNc3ccnc(C(F)(F)F)c3)nn2)cc1Cl [Compound 17]
- IC50 (PqsR): 8 nM
- fold higher activity than monosubstituted 11 (PqsR; PqsR reporter-gene IC50, versus 11): 10 fold
- half-life at 1 μM [1, 3]: 42 min
